Reference: paper PMC6301270 (MedChemComm, 2018)

Test system: T.b. brucei (strain 427) bloodstream form parasites
Assay: T.b. brucei single concentration screen (10 μM)
Conditions: Trypanosoma brucei, read-out: T.b.brucei % viability (10 µM)

Compared with `CNCCC(Oc1ccc(C(F)(F)F)cc1)c1ccccc1` (centres unmarked) [Compound 33, CNCCC(Oc1ccc(cc1)C(F)(F)F)c2ccccc2], `COc1ccccc1C(C)NCC(=O)Nc1cc(C(F)(F)F)ccc1Cl` (centres unmarked) [MMV020321, COc1ccccc1C(C)NCC(=O)Nc2cc(ccc2Cl)C(F)(F)F] is higher in viability at 10 µM: 2.4% for the first, 106% for the second.

First: CN1CCCC1CCO[C@](C)(c1ccccc1)c1ccc(Cl)cc1 (some centres unmarked) [Compound 62, ClC1=CC=C([C@@](C)(C2=CC=CC=C2)OCCC3N(C)CCC3)C=C1]
Second: CN1CCCN(C(c2ccccc2)c2ccc(Cl)cc2)CC1 (centres unmarked) [MMV004168, CN1CCCN(CC1)C(c2ccccc2)c3ccc(Cl)cc3]
The viability at 10 µM of the first is lower: 2% for the first, 55% for the second.

Going from `COc1cccc(-n2nnnc2S(C)(=O)=O)c1` [Compound 63, COc1cccc(c1)n2nnnc2S(=O)(=O)C] to `COc1cccc(CC(=O)N2CCC(n3c(C)nc4ccc(F)cc43)CC2)c1` [MMV020081, COc1cccc(CC(=O)N2CCC(CC2)n3c(C)nc4ccc(F)cc34)c1], the viability at 10 µM falls from 103% to 99%.

Compared with `CC(C)(C)c1cnc(NC(=O)c2ccccc2O)s1` [Compound 64, CC(C)(C)c1cnc(NC(=O)c2ccccc2O)s1], `Cc1ccc(NC(=O)c2cc(S(=O)(=O)NC(C)(C)C)ccc2C)nc1` [MMV020289, Cc1ccc(NC(=O)c2cc(ccc2C)S(=O)(=O)NC(C)(C)C)nc1] is higher in viability at 10 µM: 77% for the first, 93% for the second.

First: Nc1nc2cc(-c3cncc(Oc4ccc(F)cc4)c3)ccc2[nH]1 [Compound 65, Nc1nc2ccc(cc2[nH]1)c3cncc(Oc4ccc(F)cc4)c3]
Second: Cc1ccc(-c2cc(C(=O)Nc3cccnc3)c3cc(Br)ccc3n2)cc1 [MMV016838, Cc1ccc(cc1)-c1cc(c2cc(ccc2n1)Br)C(=O)Nc1cccnc1]
The viability at 10 µM of the first is lower: 14% for the first, 87% for the second.

First: O=C(Nc1ccc(N2CCNCC2)cc1)c1ccn2ncc(-c3cccc(Cl)c3)c2n1 [Compound 67, Clc1cccc(c1)c2cnn3ccc(nc23)C(=O)Nc4ccc(cc4)N5CCNCC5]
Second: Cc1cc(C(=O)Nc2ccc(-c3ccccc3)cc2)no1 [MMV020152, Cc1onc(c1)C(=O)Nc2ccc(cc2)c3ccccc3]
The viability at 10 µM of the first is lower: 1% for the first, 85% for the second.

Going from `O=C(NCCc1ccccc1)c1cc(-c2cccnc2)cnc1NCC1CC1` [Compound 68, O=C(NCCc1ccccc1)c2cc(cnc2NCC3CC3)c4cccnc4] to `CCOc1ccccc1C(=O)Nc1cccc(-c2nc3ncccn3c2C)c1` [MMV019790, CCOc1ccccc1C(=O)Nc2cccc(c2)c3nc4ncccn4c3C], the viability at 10 µM rises from 79% to 103%.

First: Cc1[nH]c2ccccc2c1C(c1cccs1)N1CCN(C)CC1 (centres unmarked) [Compound 69, CN1CCN(CC1)C(c2cccs2)c3c(C)[nH]c4ccccc34]
Second: O=C1Nc2ccc(Br)cc2C12NCCc1c2[nH]c2ccccc12 (centres unmarked) [MMV006239, Brc1ccc2NC(=O)C3(NCCc4c3[nH]c5ccccc45)c2c1]
The viability at 10 µM of the first is lower: 29% for the first, 106% for the second.

First: O=S(=O)(c1ccc(Cl)cc1)N1CCN(C(=S)NCc2ccco2)CC1 [MMV000858, Clc1ccc(cc1)S(=O)(=O)N2CCN(CC2)C(=S)NCc3occc3]
Second: Cc1ccc(S(=O)(=O)N2CCN(C(=O)c3cc(-c4ccccc4)[nH]n3)CC2)cc1 [MMV019742, Cc1ccc(cc1)S(=O)(=O)N2CCN(CC2)C(=O)c3cc([nH]n3)c4ccccc4]
The viability at 10 µM of the first is higher: 97% for the first, 96% for the second.

First: COc1cccc2c(C)nc(N=C(N)N)nc12 [MMV000907, COc1cccc2c(C)nc(N=C(N)N)nc12]
Second: COc1ccc(C2CC(c3cccs3)=NN2C(=O)c2ccco2)cc1OC (centres unmarked) [MMV019234, COc1ccc(cc1OC)C2CC(=NN2C(=O)c3occc3)c4cccs4]
The viability at 10 µM of the first is lower: 79% for the first, 107% for the second.

Compared with `CCCS(=O)(=O)N1CCC(CO)(Cc2ccccc2C(F)(F)F)CC1` [MMV001059, CCCS(=O)(=O)N1CCC(CO)(Cc2ccccc2C(F)(F)F)CC1], `CC1CC1C(=O)NC1CCN(CC2(c3ccccc3)CCCCC2)CC1` (centres unmarked) [MMV020120, CC1CC1C(=O)NC2CCN(CC3(CCCCC3)c4ccccc4)CC2] is higher in viability at 10 µM: 87% for the first, 109% for the second.

First: COC(=O)C1=C(C)NC(C)=C(C(=O)OC(C)C)C1c1cccc2nonc12 (centres unmarked) [MMV001493, COC(=O)C1=C(C)NC(=C(C1c2cccc3nonc23)C(=O)OC(C)C)C]
Second: Cc1ccc(NC(=O)c2nc[nH]c2C(=O)Nc2nc3ccccc3[nH]2)c(C)c1 [MMV011903, Cc1ccc(NC(=O)c2nc[nH]c2C(=O)Nc3nc4ccccc4[nH]3)c(C)c1]
The viability at 10 µM of the first is higher: 97% for the first, 10% for the second.

Going from `Cc1ccc2[nH]c3c(NCCN(C)C)ncnc3c2c1` [MMV006372, CN(C)CCNc1ncnc2c3cc(C)ccc3[nH]c12] to `COc1cc2ncnc(NC3CCN(Cc4ccccc4)CC3)c2cc1OC` [MMV006741, COc1cc2ncnc(NC3CCN(Cc4ccccc4)CC3)c2cc1OC], the viability at 10 µM rises from 86% to 103%.

Going from `Cc1cc(Cl)c(S(=O)(=O)N2CCCC2)cc1OCC(=O)NC1CCCCC1` [MMV006833, Cc1cc(Cl)c(cc1OCC(=O)NC2CCCCC2)S(=O)(=O)N3CCCC3] to `CC(C(=O)N1CCCC1)N1CCN(S(=O)(=O)c2ccc(C(C)(C)C)cc2)CC1` (centres unmarked) [MMV020291, CC(N1CCN(CC1)S(=O)(=O)c2ccc(cc2)C(C)(C)C)C(=O)N3CCCC3], the viability at 10 µM falls from 98% to 95%.

First: Cc1cc(NC(=O)c2ccc(S(=O)(=O)N(Cc3ccccc3)C(C)C)cc2)no1 [MMV007133, CC(C)N(Cc1ccccc1)S(=O)(=O)c2ccc(cc2)C(=O)Nc3cc(C)on3]
Second: CCC(NC(=O)c1ccccc1NC(=O)c1ccc(C)cc1)C(=O)OC (centres unmarked) [MMV019551, CCC(NC(=O)c1ccccc1NC(=O)c2ccc(C)cc2)C(=O)OC]
The viability at 10 µM of the first is higher: 98% for the first, 97% for the second.

Going from `COc1cc(OC)cc(C(=O)NCC2Cc3cc(Cl)cc(-c4ccncc4)c3O2)c1` (centres unmarked) [MMV007471, COc1cc(OC)cc(c1)C(=O)NCC2Cc3cc(Cl)cc(c3O2)c4ccncc4] to `Cc1cc(Nc2ccncc2)n2nc(C)c(-c3ccccc3Cl)c2n1` [MMV016136, Cc1cc(Nc2ccncc2)n3nc(C)c(c4ccccc4Cl)c3n1], the viability at 10 µM rises from 74% to 113%.

Compared with `Cc1cc(C)n(-c2ccc(NC(=O)C3CCN(Cc4cnc(C)s4)CC3)cc2)n1` [MMV007625, Cc1cc(C)n(n1)c2ccc(NC(=O)C3CCN(Cc4cnc(C)s4)CC3)cc2], `Cc1cc(C)n2nc(C(=O)Nc3cc(C(F)(F)F)ccc3N3CCOCC3)nc2n1` [MMV019087, Cc1cc(C)n2nc(nc2n1)C(=O)Nc3cc(ccc3N4CCOCC4)C(F)(F)F] is higher in viability at 10 µM: 65% for the first, 74% for the second.

First: CCOc1ccc(-c2nc(NC(=O)CS(=O)(=O)c3ccccc3)sc2C)cc1 [MMV007638, CCOc1ccc(cc1)c2nc(NC(=O)CS(=O)(=O)c3ccccc3)sc2C]
Second: CCN(CC)S(=O)(=O)c1ccc(Cl)c(C(=O)Nc2ccc3nc(C)sc3c2)c1 [MMV019721, CCN(CC)S(=O)(=O)c1ccc(Cl)c(c1)C(=O)Nc2ccc3nc(C)sc3c2]
The viability at 10 µM of the first is higher: 73% for the first, 62% for the second.

First: O=C(NC1CC1)c1ccc(CSCc2ccccc2Cl)o1 [MMV007803, Clc1ccccc1CSCc2oc(cc2)C(=O)NC3CC3]
Second: Cc1nc2ccccn2c1C(=O)NCc1ccc(Cl)cc1 [MMV012074, Cc1nc2ccccn2c1C(=O)NCc3ccc(Cl)cc3]
The viability at 10 µM of the first is lower: 101% for the first, 102% for the second.

Going from `Nc1ccc(C(=O)Nc2ccc(-c3nc4ccccc4o3)cc2)cc1` [MMV007920, Nc1ccc(cc1)C(=O)Nc2ccc(cc2)c3oc4ccccc4n3] to `Cc1ccc(Oc2ccc(NC(=O)CNc3ccccc3N3CCCC3=O)cc2)cc1` [MMV020512, Cc1ccc(Oc2ccc(NC(=O)CNc3ccccc3N4CCCC4=O)cc2)cc1], the viability at 10 µM rises from 83% to 95%.

Going from `COc1ccc(CN2CCOc3ccc(C(C)(O)CN(C)C)cc3C2)cc1C` (centres unmarked) [MMV008439, COc1ccc(CN2CCOc3ccc(cc3C2)C(C)(O)CN(C)C)cc1C] to `COc1ccc(CCN2CCC(NCc3cccc(N(C)C)c3)CC2)cc1` [MMV011511, COc1ccc(CCN2CCC(CC2)NCc3cccc(c3)N(C)C)cc1], the viability at 10 µM falls from 94% to 66%.

Going from `Cc1cc(C(=O)Nc2cnn(Cc3ccc(Cl)cc3Cl)c2)no1` [MMV009054, Cc1onc(c1)C(=O)Nc2cnn(Cc3ccc(Cl)cc3Cl)c2] to `Cc1nnc(NC(=O)c2cn(-c3ccccc3)nc2-c2ccccc2C)o1` [MMV020320, Cc1oc(NC(=O)c2cn(nc2c3ccccc3C)c4ccccc4)nn1], the viability at 10 µM falls from 89% to 46%.

Going from `O=C(C1CCN(c2nnnn2-c2ccccc2)CC1)N1CCc2ccccc2C1` [MMV009135, O=C(C1CCN(CC1)c2nnnn2c3ccccc3)N4CCc5ccccc5C4] to `NCC(=O)N1CCn2c(nc(-c3ccccc3)c2Nc2ccc3c(c2)OCO3)C1` [MMV011691, NCC(=O)N1CCn2c(C1)nc(c2Nc3ccc4OCOc4c3)c5ccccc5], the viability at 10 µM rises from 94% to 120%.

First: COc1ccc(-c2cnc3ccc(NCc4ccc(S(N)(=O)=O)cc4)nn23)cn1 [MMV010545, COc1ccc(cn1)c2cnc3ccc(NCc4ccc(cc4)S(=O)(=O)N)nn23]
Second: O=C(Nc1ccnc(-c2cccnc2)n1)c1cc(C(F)(F)F)cc(C(F)(F)F)c1 [MMV019838, FC(F)(F)c1cc(cc(c1)C(F)(F)F)C(=O)Nc2ccnc(n2)c3cccnc3]
The viability at 10 µM of the first is lower: 97% for the first, 106% for the second.

First: c1csc(-c2cnc3sc(NCC4CCOCC4)nn23)c1 [MMV010764, C(Nc1nn2c(cnc2s1)c3cccs3)C4CCOCC4]
Second: CNC(=O)c1cc(S(=O)(=O)N2CCN(c3ccccn3)CC2)cs1 [MMV020136, CNC(=O)c1cc(cs1)S(=O)(=O)N2CCN(CC2)c3ccccn3]
The viability at 10 µM of the first is lower: 94% for the first, 97% for the second.

Compared with `Cc1cc(Nc2ccc(C(F)(F)F)cc2)n2ccnc2n1` [MMV011229, CC1=NC2=NC=CN2C(NC3=CC=C(C(F)(F)F)C=C3)=C1], `Cc1nn(C)cc1C(C)Nc1nncc(-c2ccc(C(F)(F)F)cc2)n1` (centres unmarked) [MMV019993, CC(Nc1nncc(n1)c2ccc(cc2)C(F)(F)F)c3cn(C)nc3C] is higher in viability at 10 µM: 89% for the first, 104% for the second.

Compared with `FC(F)(F)c1cnc(Sc2nnc(-c3ccncc3)o2)c(Cl)c1` [MMV011765, FC(F)(F)c1cnc(Sc2oc(nn2)c3ccncc3)c(Cl)c1], `CC(C)NCC(=O)Nc1cccc(C(=O)Nc2cccc(C(F)(F)F)c2)c1` [MMV020165, CC(C)NCC(=O)Nc1cccc(c1)C(=O)Nc2cccc(c2)C(F)(F)F] is higher in viability at 10 µM: 85% for the first, 107% for the second.

Compared with `Cc1ccc2cc(C3NC(=O)c4ccccc4N3)c(Cl)nc2c1` (centres unmarked) [MMV019807, Cc1ccc2cc(C3NC(=O)c4ccccc4N3)c(Cl)nc2c1], `CC1CCCN(C(=O)C(C)Nc2cc(Cl)ccc2N2CCOCC2)C1` (centres unmarked) [MMV020388, CC(Nc1cc(Cl)ccc1N2CCOCC2)C(=O)N3CCCC(C)C3] is lower in viability at 10 µM: 113% for the first, 95% for the second.
